Laboratory results taken from US9668951B2, “Pharmaceutical compositions comprising renewably-based biodegradable 1,3-propanediol” (DuPont Tate & Lyle Bio Products Company, LLC, priority 2006, dated 2017).

What was measured:
human skin [1] = experiment: human skin patch test, 5, 25 and 50% (induction and challenge phases); format: in vivo; conditions: diluted with D.I. water to 5%, 105 panelists completed
Source text: (§1) Based on these studies PDO is not expected to be a skin irritant or sensitizer in humans.
The purpose of this study was to determine the potential of biologically-derived 1,3-propanediol, diluted to concentrations of 5%, 25%, and 50%, to cause irritation or delayed contact hypersensitivity in humans. The method employed in carrying out this test, described below, was similar to that described in “Appraisal of the Safety of Chemicals in Foods, Drugs and Cosmetics” by J. H. Drake and published by the Association of Food and Drug Officials of the United States, incorporated herein by reference.
Test Panel: The test involved the application of the test article to the upper arms of a group of 112 volunteer panelists. The panelists ranged from 16 to 71 years of age. One hundred and five panelists completed the study. Prior to the initiation of the study, all panelists were in good general health and free of any visible skin disease or anomaly in the area to be patched. Each panelist was required to read, understand and sign an informed consent statement. […]

human skin [2] = experiment: second human skin patch test; format: in vivo
Source text: as §1

SMILES | skin irritant, fatiguing agent, or sensitizing agent (human skin [1]) | dermal irritation or sensitization reactions (human skin [2]; 25, 50, and 75% PDO at pH 7, or 75% PDO at pH 4 and 9) | patch test irritation of human skin (human skin [2]; 25, 50, and 75% (pH 7))
OCCCO [PDO, 1,3-propanediol] | not to be a skin irritant, fatiguing agent, or sensitizing agent | did not produce any clinically significant dermal irritation or sensitization reactions | 
CC(O)CO (stereo not drawn) [propylene glycol, reference compound] |  |  | patch test irritants and cumulative irritants
